Source: US10842892B2, “Methods and apparatus for synthesizing imaging agents, and intermediates thereof” (Lantheus Medical Imaging, Inc., priority 2010, dated 2020)

How the values were obtained:
[1] = system: blood brain barrier (BBB); test: brain uptake with and without blood brain barrier disruption; type: in vivo, rat
Description: Male Sprague-Dawley rats were anesthetized with sodium pentobarbital and the left external carotid artery was cannulated close to the internal and external carotid bifurcation. Using saline as control and 25% D-mannitol as hypertonic solution, each were perfused retrogradely in six animals (0.3 mL/kg/sec) for 30 seconds. Two minutes later, ˜1 mCi imaging agent 1 was injected via tail vein and the brain was imaged with a microPET camera for 30 minutes. […] Following completion of imaging, the brain was harvested, photographed and dissected into left and right hemispheres and cerebellum. The tissue content of imaging agent 1 radioactivity was measured by gamma counter and Evans blue levels were determined by fluorescence method for calculation of the % injected dose/gram tissue and μg Evan blue/gram tissue, respectively.

myocardial ischemia = test: imaging agent 1 and ^82Rb PET versus ^99mTc sestamibi SPECT, perfusion defect assessment (phase II); type: in vivo, human
Description: Twenty-six patients (20 men) who underwent ^99mTc sestamibi SPECT and imaging agent 1 PET within 6 months at a single center in a phase II clinical trial were compared to 23 patients (matched by summed difference score (SDS) on SPECT) who underwent ^99mTc sestamibi SPECT and ^82Rb PET (25-50 mCi) within 6 months without change in clinical state. PET was performed with imaging agent 1 at rest (2.3-3.9 mCi) followed 60 min or 24 h later with exercise or adenosine stress (7.3-8.6 mCi). Perfusion defects on SPECT and PET were assessed by computer-assisted visual interpretation, using the standard 17 segment, 5 point-scoring model (0=normal; 4=absent uptake). The extent and severity of ischemia (SDS) was derived from the difference between summed stress score (SSS) and summed rest scores (SRS).
Twenty six patients (20 men) underwent SPECT and PET within 6-months. PET was performed with imaging agent 1 at rest (2.3-3.9 mCi) followed 60 min (n=18) or 24 h (n=8) later with exercise (n=16) or adenosine (n=10) stress (7.3-8.6 mCi). Image quality of SPECT and PET was consensually assessed by 2 independent blinded readers and graded as excellent, good, or fair. Stress and rest perfusion defects on SPECT and PET were assessed by the same readers by computer-assisted visual interpretation, using the standard 17 segment, 5 point-scoring model (0=normal; 4=absent uptake). The extent and severity of ischemia (summed difference score (SDS)) was derived from the difference between summed stress (SSS) and summed rest scores (SRS). Image quality with PET was excellent in 24 and good in 2 patients. In contrast, there were 7 excellent, 18 good, and 1 fair quality study, p<0.001 by SPECT. In 14 patients with abnormal SPECT (SSS≥4), mean SDS was greater with PET than with SPECT (9.6±1.8 vs. 5.4±0.7, p=0.02). In all 12 patients with normal SPECT (SSS<4), SDS was zero by PET and SPECT.

[2] = system: stress induced myocardial perfusion abnormalities; test: rest-stress imaging agent 1 PET versus Tc-99m Sestamibi SPECT MPI, single center; type: in vivo, human; conditions: myocardial segments supplied by diseased coronary arteries, 13 patients
Description: Thirteen patients, from a single center, underwent rest-stress Tc-99m Sestamibi SPECT MPI, rest-stress imaging agent 1 PET MPI and coronary angiography. In each patient, 17 myocardial segments were visually scored for rest and stress images by independent observers who were blinded to all other results. For each patient, summed stress scores (SSS), summed rest scores (SRS), and summed difference scores (SDS) were determined from segmental scores. Percent narrowing in each coronary artery was evaluated blindly and 70% luminal diameter narrowing was considered significant.

[3] = 25% D-mannitol compared to saline control
[4] = matched group of 13 patients with abnormal SPECT (^82Rb PET group)

increase in uptake, cerebellum [1, 3] [%]	increase in uptake, left hemisphere [1, 3] [%]	increase in uptake, right hemisphere [1, 3] [%]	Brain uptake, cerebellum ([1]; BBBD (25% D-mannitol) rats) [µg/g]	Brain uptake, left hemisphere ([1]; BBBD (25% D-mannitol) rats) [µg/g]	Brain uptake, right hemisphere ([1]; BBBD (25% D-mannitol) rats) [µg/g]	Brain uptake, cerebellum ([1]; control (saline) rats) [µg/g]	Brain uptake, left hemisphere ([1]; control (saline) rats) [µg/g]	Brain uptake, right hemisphere ([1]; control (saline) rats) [µg/g]	SMILES	SDS (myocardial ischemia; 12 patients with normal SPECT (SSS<4))	mean SDS (summed difference score) (myocardial ischemia; 14 patients with abnormal SPECT (SSS≥4))	image quality excellent, number of patients (myocardial ischemia; 26 patients, 2 blinded readers)	image quality fair, number of patients (myocardial ischemia; 26 patients, 2 blinded readers)	image quality good, number of patients (myocardial ischemia; 26 patients, 2 blinded readers)	mean SDS (summed difference score) (myocardial ischemia; [4])	SDS [2]	SRS [2]	SSS [2]	differences in SDS, PET compared to SPECT (myocardial ischemia; patients with normal SPECT (SSS<4))
186	633	216	83 ± 12	154 ± 13	60 ± 8	29 ± 4	21 ± 2	19 ± 2	Cc1cc(-c2ccc(/N=N/c3ccc4c(S(=O)(=O)O)cc(S(=O)(=O)O)c(N)c4c3O)c(C)c2)ccc1/N=N/c1ccc2c(S(=O)(=O)O)cc(S(=O)(=O)O)c(N)c2c1O [Evans blue]	–	–	–	–	–	–	–	–	–	–
–	–	–	–	–	–	–	–	–	[C-]#[N+]CC(C)(C)OC.[C-]#[N+]CC(C)(C)OC.[C-]#[N+]CC(C)(C)OC.[C-]#[N+]CC(C)(C)OC.[C-]#[N+]CC(C)(C)OC.[C-]#[N+]CC(C)(C)OC.[Tc] [^99mTc sestamibi]	zero	5.4±0.7	7	1	18	4.6±1.3	5.4 ± 4.2	3.1 ± 3.3	8.6 ± 5.8	–
–	–	–	–	–	–	–	–	–	[82Rb+].[Cl-] [^82Rb, rubidium-82 (^82Rb) chloride]	–	–	–	–	–	4.9±1.4	–	–	–	no differences
